Measured values from patent publication US20200390767A1, “Formulations of 4-(7-Hydroxy-2-isopropyl-4-oxo-4H-quinazolin-3-yl)-benzonitrile” (NOVARTIS AG, priority 2019, published 2020).
≈ marks a conversion by molar mass, not a printed value. Where “and” joins values, the source holds several entries; their conditions need not be identical. Identical values can stand only once.

Assays:
[1] = Solubility of compound I in solvents; format: physicochemical
Excerpt: As noted above, compound I is sparingly soluble in various media.

[2] = tested on: postoperative ocular pain in patients undergoing photorefractive keratectomy (PRK) surgery; test: PRK clinical study, oral rescue medication use; format: in vivo, human
Procedure: Rescue medication consisted of oral analgesic (acetaminophen 300 mg+codeine 30 mg) as needed up to a total of 10 tabs/day or 1-2 tabs every 4 hours.
After 36 hours post-operation, the same number of patients took ORM in compound I vs. Vehicle (Table 24).

epithelial wound = test: PRK clinical study, size of epithelial defect by slit lamp exam; format: in vivo, human
Excerpt: Adverse events and serious adverse events included an assessment of both systemic and ocular assessments. Systemic safety assessments included regular assessments of height and weight, vital signs, reporting medication errors including misuse/abuse, pregnancy reporting and early phase safety monitoring. The misuse/abuse, pregnancy reporting and early phase safety monitoring were not assessed for the study. Ocular safety assessments included the following: • Best-corrected visual acuity (BCVA) and uncorrected visual acuity (UCVA): Was measured at each visit using an ETDRS visual acuity chart at 4 meters (13 feet) or 1 meter (for patients that cannot read the 4 meter chart). The BCVA scoring was done based on the number of correctly read letters plus 30. If visual acuity was so poor that the patient could not read any of the largest letters at 1 meter, count fingers and hand movement vision and light perception was tested. • Intraocular Pressure (TOP): IOP measurements were conducted with applanation tonometry or Tonopen. • Dilated fundus exam: The dilated fundus examination included ophthalmoscopic assessments of the vitreous, retina/macula/choroid, and optic nerve. Evaluations for retinal tear/detachment, retinal hemorrhage, vitreous hemorrhage density, vitreous haze grading and abnormal findings were done and scored according to grading criteria. • Ocular hyperemia: Conjunctival redness of the bulbar conjunctiva in each eye at the slit lamp according to the McMonnies redness scale was graded. […] By adjusting the calibrated slit beam width and height, the maximum horizontal (wound width) and vertical dimensions (wound height) of the surgical epithelial wound was estimated. The evaluation was performed until wound closure and report of wound size as 0 horizontal and 0 vertical dimensions. • Slit-lamp biomicroscopy: Ocular signs (eyelids/conjunctiva, cornea, lens, and iris/anterior chamber) was assessed in both eyes by slit lamp biomicroscopy according to the grading criteria. • Blink rate: A blink was defined as a bilateral paroxysmal closure of the eyelids (duration <1 second) in the absence of a provoking external stimulus. Each blink assessment lasted for 2 min (or as close to 2 minutes as possible with minimum time 1 minute) and the obtained blink rate was averaged to calculate blink rate in blinks/min. • Tear production (Schirmer's test without anesthesia): The test was performed without anesthetic in both eyes simultaneously. Tear secretion was measured in millimeters of the length of strip wetted by tears. […] The strip was wetted with 1 drop of sterile saline and flicked to remove excess saline. The patient blinked several times to ensure dispersion of the dye throughout the tear film prior to grading on a scale of 0-3 (0=Normal, No staining; 1=Mild, Superficial stippling micropunctate staining; 2=Moderate, Macropunctate staining with some coalescent areas and 3=Severe, Numerous coalescent macropunctate areas and/or patches) for each of 5 zones (central plus 4 quadrants).
Size of epithelial defect by slit lamp exam: In order to assess the rate of wound healing after administration of compound I, the size of the epithelial defect in both compound I and Vehicle treated populations was measured. The elliptical area of epithelial wound size was calculated as follows: Area (mm2)=width×height×pi, from the width and height of the epithelial defect measured at the slit lamp. The difference in epithelial wound area between compound I and Vehicle was not noticeably different at any time point except at Day 2 post-PRK surgery (all p-values for the difference in area was >0.35). On Day 2 (24 hours post-operative), the difference in average epithelial defect area between patients treated with compound I vs. Vehicle was 11.23 mm^2 (p value=0.034). This difference was not clinically significant in the immediate post-operative period. […]

CC(C)c1nc2cc(O)ccc2c(=O)n1-c1ccc(C#N)cc1 [Compound I, 4-(7-hydroxy-2-isopropyl-4-oxo-4H-quinazolin-3-yl)-benzonitrile]
solubility ([1]; isopropyl myristate, oil or lipid, solvent: Isopropyl Myrisate): 90 µg/mL (≈ 295 µM)
solubility ([1]; oil or lipid, solvent: Medium-Chain Triglycerides (Miglyol 812)): 100 µg/mL (≈ 328 µM)
solubility ([1]; oil or lipid, solvent: Mineral Oil): 30 µg/mL (≈ 98.3 µM)
solubility ([1]; oil or lipid, solvent: Oleyl Alcohol): 120 µg/mL (≈ 393 µM)
solubility ([1]; organic solvent or mixture, solvent: Diisopropyl Adipate): 160 µg/mL (≈ 524 µM)
solubility ([1]; organic solvent or mixture, solvent: Ethanol): 790 µg/mL (≈ 2590 µM)
solubility ([1]; organic solvent or mixture, solvent: Hexylene Glycol): 280 µg/mL (≈ 917 µM)
solubility ([1]; organic solvent or mixture, solvent: Isopropanol): 330 µg/mL (≈ 1080 µM)
solubility ([1]; organic solvent or mixture, solvent: Isosorbide): 340 µg/mL (≈ 1110 µM)
solubility ([1]; organic solvent or mixture, solvent: Polyethylene Glycol 200): 1620 µg/mL (≈ 5310 µM)
solubility ([1]; organic solvent or mixture, solvent: Polyethylene Glycol 300): 2040 µg/mL (≈ 6680 µM)
solubility ([1]; organic solvent or mixture, solvent: Polyethylene Glycol 400): 1660 µg/mL (≈ 5440 µM)
solubility ([1]; organic solvent or mixture, solvent: Propylene Carbonate): 400 µg/mL (≈ 1310 µM)
solubility ([1]; organic solvent or mixture, solvent: Propylene Glycol): 1680 µg/mL (≈ 5500 µM)
solubility ([1]; solvent: Water): 10 µg/mL (≈ 32.8 µM)
% Change (Compound I-Vehicle)/Vehicle, mg/kg of body weight ([2]; 0-6 hours post-operatively): −25%
% Change (Compound I-Vehicle)/Vehicle, number of pills ([2]; 0-6 hours post-operatively): −25%
amount of oral rescue medication, Mean (SD) ([2]; 0-6 hours post-operatively): 3.32 (4.684) mg/kg of body weight
amount of oral rescue medication, Mean (SD) ([2]; 0-6 hours post-operatively, listed as compound I): 0.75 (1.032) Number of pills
% Change (Compound I-Vehicle)/Vehicle, mg/kg of body weight ([2]; 0-12 hours post-operatively): −17%
% Change (Compound I-Vehicle)/Vehicle, number of pills ([2]; 0-12 hours post-operatively): −15%
amount of oral rescue medication, Mean (SD) ([2]; 0-12 hours post-operatively): 6.10 (8.062) mg/kg of body weight
amount of oral rescue medication, Mean (SD) ([2]; 0-12 hours post-operatively, listed as compound I): 1.40 (1.780) Number of pills
% Change (Compound I-Vehicle)/Vehicle, mg/kg of body weight ([2]; 0-24 hours post-operatively): −18%
% Change (Compound I-Vehicle)/Vehicle, number of pills ([2]; 0-24 hours post-operatively): −16%
amount of oral rescue medication, Mean (SD) ([2]; 0-24 hours post-operatively): 10.17 (12.335) mg/kg of body weight
amount of oral rescue medication, Mean (SD) ([2]; 0-24 hours post-operatively, listed as compound I): 2.35 (2.751) Number of pills
% Change (Compound I-Vehicle)/Vehicle, mg/kg of body weight ([2]; 0-48 hours post-operatively): −14%
% Change (Compound I-Vehicle)/Vehicle, number of pills ([2]; 0-48 hours post-operatively): −13%
amount of oral rescue medication, Mean (SD) ([2]; 0-48 hours post-operatively): 17.59 (19.850) mg/kg of body weight
amount of oral rescue medication, Mean (SD) ([2]; 0-48 hours post-operatively, listed as compound I): 4.05 (4.466) Number of pills
% Change (Compound I-Vehicle)/Vehicle, mg/kg of body weight ([2]; 0-72 hours post-operatively): −15%
% Change (Compound I-Vehicle)/Vehicle, number of pills ([2]; 0-72 hours post-operatively): −14%
amount of oral rescue medication, Mean (SD) ([2]; 0-72 hours post-operatively): 18.70 (21.509) mg/kg of body weight
amount of oral rescue medication, Mean (SD) ([2]; 0-72 hours post-operatively, listed as compound I): 4.33 (4.896) Number of pills
Epithelial Wound Size, Area, Difference compound I-Vehicle (epithelial wound; Day 1): 2.98 (27.33) mm^2
Epithelial Wound Size, Area, raw mean (SD) (epithelial wound; Day 1): 220.15 (32.26) mm^2
Epithelial Wound Size, Area, Difference compound I-Vehicle (epithelial wound; Day 2): 11.23 mm^2 and 11.23 (32.30) mm^2
Epithelial Wound Size, Area, raw mean (SD) (epithelial wound; Day 2): 83.02 (32.08) mm^2
Epithelial Wound Size, Area, Difference compound I-Vehicle (epithelial wound; Day 3): 1.02 (8.78) mm^2
Epithelial Wound Size, Area, raw mean (SD) (epithelial wound; Day 3): 6.75 (12.66) mm^2
Epithelial Wound Size, Area, Difference compound I-Vehicle (epithelial wound; Day 4): 0.31 (2.11) mm^2
Epithelial Wound Size, Area, raw mean (SD) (epithelial wound; Day 4): 0.39 (2.04) mm^2
Epithelial Wound Size, Area, Difference compound I-Vehicle (epithelial wound; Day 8): 0.00 (0.00) mm^2
Epithelial Wound Size, Area, raw mean (SD) (epithelial wound; Day 8): 0.00 (0.00) mm^2
wound healing compared to Vehicle (epithelial wound; human, in vivo): no delay in wound healing
